Key:
[1] = tested on: non-small cell lung cancer cell strain H460; test: Trypan blue live cell count (cell viability); assay type: cell-based, human; conditions: FIGS. 3A and 3B, PB12 at 150 μM
Protocol: Whether the cancer cell growth inhibitory effects of the compounds PB01 and PB11 on the non-small cell lung cancer cell strains is associated with apoptosis was investigated. The cell growth inhibitory effects were evaluated by a trypan blue assay, and cell shapes were observed using an inverted microscope. The shapes of cell nuclei were observed via Hoeschst 33342 staining. Degrees of inducing apoptosis were quantized by flow cytometry (fluorescent activated cell sorting (FACS)).
After about 5×10^3 cells per well of each of the human non-small cell lung cancer cell strains A549 and H460 were portioned into a 96-well plate, about 10 uM to about 50 uM of the compounds PB01 or PB11 in 200 ul of culture solution were added into the wells, and incubated for about 8 to 72 hours. Cells were collected from the incubation product, and centrifuged at about 2,000 rpm for 5 minutes. After removing a supernatant, the remaining cells were mixed with 1 mL of phosphate-buffered saline (PBS) to obtain a cell suspension, which was then mixed with an equal amount of 0.5% trypan blue (Gibco BRL), followed by treatment for about 1 minute. The number of live cells was counted using a phase-contrast) microscope. The live cell counting was repeated three times, and an average live cell count and a standard error were calculated using a Microsoft Excel program. Cell viability graphs with respect to compound concentration and incubation time were obtained. The same experiment was performed with 50 μM of the compound PB01, PB11 50 μM of the compound PB11, or 150 μM of the compound PB12 150 μM, and cell viability graphs with respect to compound concentration and incubation time were obtained.

[2] = tested on: non-small cell lung cancer cell strain H460; test: Apoptosis ratio, Annexin V flow cytometry; assay type: cell-based, human; conditions: about 40 hours, 50 μM PB01, 50 μM PB11, 150 μM PB12, FIGS. 9A and 9B
Protocol: About 5×10^5 cells per well of each of the non-small cell lung cancer cell strains A549 and H460 were portioned into a 6-well plate and then incubated with the compounds PB01 or PB11 for about 40 hours in the same manner as described above. A cell layer was washed with PBS and then treated with trypsin-EDTA solution to isolate cells. The isolated cells were collected and stained with an Annexin V Flous Staining kit (available Roche Applied Science, Penzberg, Germany) in a dark condition for about 30 minutes. The stained cells were analyzed by flow cytometry using a FACScan™ (available from Becton Dicknson) to count the number of dead cells and then calculate an apoptosis ratio. The same experiment was performed with 50 μM of PB01, 50 μM of PB11, or 150 μM of PB12 in the same manner as described above. The graphs of cell viability with respect to compound concentration and incubation time obtained based on the experimental results are shown in FIGS. 9A and 9B.

Cc1noc(C)c1CSc1nc2ccc(NC(=O)C3CCC(O)CC3)cc2s1 (centres unmarked) [PB12]
cancer cell apoptosis effect with respect to concentration and incubation time [1]: improved cancer cell apoptosis effects with increases in concentration and incubation time
apoptosis induction (Annexin V) [2]: kill the non-small cell lung cancer cells by inducing apoptosis

Reference: patent US9421193B2, “Benzothiazole derivatives and a use thereof for the treatment of cancer” (Korea Institute of Radiological & Medical Sciences, priority 2014, dated 2016)
